# Results taken from ChEMBL document CHEMBL3639272, “2-morpholino-pyrido[3,2-D]pyrimidines” (2013).
# Target: Phosphatidylinositol 4,5-bisphosphate 3-kinase catalytic subunit alpha isoform (Homo sapiens, UniProt P42336)
# Assay: Biological Assays: The efficacy of compounds of the invention in inhibiting the PI3K induced-lipid phosphorylation may be tested in the following binding assay. The assay combines the scintillation proximity assay technology (SPA, Amersham) with the capacity of neomycin (a polycationic antibiotic) to bind phospholipids with high affinity and specificity. The Scintillation Proximity Assay is based on the properties of weakly emitting isotopes (such as 3H, 125I, 33P). Coating SPA beads with neomycin allows the detection of phosphorylated lipid substrates after incubation with recombinant PI3K and radioactive ATP in the same well, by capturing the radioactive phospholipids to the SPA beads through their specific binding to neomycin.
# Chain of Phosphatidylinositol 4,5-bisphosphate 3-kinase catalytic subunit alpha isoform (P42336 whole entry, canonical isoform): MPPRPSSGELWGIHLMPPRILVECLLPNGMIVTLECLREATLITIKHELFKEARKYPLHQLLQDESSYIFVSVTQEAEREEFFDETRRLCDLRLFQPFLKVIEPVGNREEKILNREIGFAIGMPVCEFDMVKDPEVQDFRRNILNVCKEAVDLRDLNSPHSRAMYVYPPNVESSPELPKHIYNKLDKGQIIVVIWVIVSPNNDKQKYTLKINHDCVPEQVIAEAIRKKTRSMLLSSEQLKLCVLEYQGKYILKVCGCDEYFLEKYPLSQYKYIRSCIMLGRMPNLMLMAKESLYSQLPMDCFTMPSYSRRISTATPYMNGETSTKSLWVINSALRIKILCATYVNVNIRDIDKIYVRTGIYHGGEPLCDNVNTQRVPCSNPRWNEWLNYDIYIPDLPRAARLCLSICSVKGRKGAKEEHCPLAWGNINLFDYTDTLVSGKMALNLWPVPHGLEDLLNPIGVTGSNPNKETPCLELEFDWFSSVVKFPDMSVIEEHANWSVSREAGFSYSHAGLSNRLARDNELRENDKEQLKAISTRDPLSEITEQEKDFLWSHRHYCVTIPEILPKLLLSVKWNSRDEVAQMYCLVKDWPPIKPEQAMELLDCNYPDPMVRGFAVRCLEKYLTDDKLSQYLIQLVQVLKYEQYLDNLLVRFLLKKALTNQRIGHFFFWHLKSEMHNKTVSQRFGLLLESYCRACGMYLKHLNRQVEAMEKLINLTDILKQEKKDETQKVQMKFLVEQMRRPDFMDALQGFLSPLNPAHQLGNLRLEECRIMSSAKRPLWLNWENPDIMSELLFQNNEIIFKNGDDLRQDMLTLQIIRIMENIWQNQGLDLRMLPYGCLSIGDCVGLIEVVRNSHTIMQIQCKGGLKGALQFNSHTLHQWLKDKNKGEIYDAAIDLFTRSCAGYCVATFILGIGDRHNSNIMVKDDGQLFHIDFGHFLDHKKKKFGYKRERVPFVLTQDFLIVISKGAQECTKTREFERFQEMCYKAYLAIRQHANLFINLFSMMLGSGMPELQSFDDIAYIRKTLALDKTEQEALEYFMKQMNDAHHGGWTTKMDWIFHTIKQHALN
smiles,measurement,value
O=C(O)c1cc(-c2cccc3ccccc23)c2nc(N3CCOCC3)nc(-c3cccc(O)c3)c2n1,IC50,57 nM
